# Experimental data taken from ChEMBL document CHEMBL1201862, “PubChem BioAssay data set” (2004).
#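 These data come from cells grown in 96-well plates and exposed to compound for 48 hours at five concentrations. Here, GI50 denotes the concentration required for 50% inhibition of growth.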 Calls of active or inactive are those of the source. No stated cut-off is given here; in the data, active = GI50 up to about 1.1 µM and inactive = higher.
# Tests used:
# Experiment in all cases: DTP human tumour cell line panel, 48 h
# [1] = system: COLO 205
# [2] = system: MDA-MB-435
# [3] = system: HOP-62
# [4] = system: Hs-578T
# [5] = system: HCC 2998
# [6] = system: A498
# [7] = system: SF-539
# [8] = system: 786-0
# [9] = system: OVCAR-4
# [10] = system: MDA-N
# [11] = system: SK-OV-3
# [12] = system: OVCAR-5
# [13] = system: SK-MEL-5
# [14] = system: SK-MEL-2
# [15] = system: MOLT-4
# [16] = system: MCF7
# [17] = system: OVCAR-8
# [18] = system: LOX IMVI
# [19] = system: T47D
# [20] = system: HL-60
SMILES,GI50 [1],GI50 [2],GI50 [3],GI50 [4],GI50 [5],GI50 [6],GI50 [7],GI50 [8],GI50 [9],GI50 [10],GI50 [11],GI50 [12],GI50 [13],GI50 [14],GI50 [15],GI50 [16],GI50 [17],GI50 [18],GI50 [19],GI50 [20]
COC(=O)C1=C(O)C(C(=O)OC)[C@]2(O)[C@H](C(=O)OC)[C@H]1C[C@@H](c1ccc(OC)cc1)[C@H]2C(=O)OC (some centres undefined),35.2 µM (inactive),5.97 µM (inactive),29.9 µM (inactive),19.9 µM (inactive),17.8 µM (inactive),7.74 µM (inactive),28.3 µM (inactive),20.2 µM (inactive),19.8 µM (inactive),8.71 µM (inactive),29 µM (inactive),20.7 µM (inactive),13.7 µM (inactive),19.8 µM (inactive),10.2 µM (inactive),20.2 µM (inactive),30.7 µM (inactive),24.4 µM (inactive),22.3 µM (inactive),
Nc1n[n+]([O-])c2cnccc2[n+]1[O-],39.6 µM (inactive),21.4 µM (inactive),> 100 µM (inactive),> 100 µM (inactive),> 100 µM (inactive),,47.9 µM (inactive),70.6 µM (inactive),56.2 µM (inactive),20.7 µM (inactive),> 100 µM (inactive),52 µM (inactive),16.4 µM (inactive),> 100 µM (inactive),51.8 µM (inactive),> 10 µM (inactive),31.3 µM (inactive),52.2 µM (inactive),59.7 µM (inactive),13.6 µM (inactive)
COC(=O)C(CSSC[C@H](N/C(C)=C/C(C)=O)C(=O)OC)N/C(C)=C/C(C)=O (some centres undefined),> 100 µM (inactive),74.5 µM (inactive),57.9 µM (inactive),21.6 µM (inactive),,> 100 µM (inactive),53 µM (inactive),32.2 µM (inactive),> 100 µM (inactive),52.8 µM (inactive),> 100 µM (inactive),18.7 µM (inactive),67.3 µM (inactive),> 100 µM (inactive),32.3 µM (inactive),26.9 µM (inactive),< 0.01 µM (active),14 µM (inactive),16.6 µM (inactive),30.2 µM (inactive)
O=C1c2ccccc2C2(c3ccc(F)cc3)NCCN12 (centres undefined),> 100 µM (inactive),> 100 µM (inactive),> 100 µM (inactive),> 100 µM (inactive),> 100 µM (inactive),,,> 100 µM (inactive),> 100 µM (inactive),> 100 µM (inactive),> 100 µM (inactive),> 100 µM (inactive),> 100 µM (inactive),> 100 µM (inactive),> 100 µM (inactive),> 100 µM (inactive),> 100 µM (inactive),,> 100 µM (inactive),> 100 µM (inactive)
